Experimental data taken from publication PMC10318527, “Utilization of dietary mixed-linkage β-glucans by the Firmicute Blautia producta” (The Journal of Biological Chemistry, 2023).

How the values were obtained:
BPGH16 mutant R331A = experiment: Kinetics of BPGH16 mutant R331A (DNS assay); type: biochemical, Blautia producta ATCC 27340
Description: (§1) The residues R331, L358, E379, D381, E384, W362, and H398 of BpGH16MLG were mutated to Ala by the Q5Site-Directed Mutagenesis Kit (New England Biolabs, UK, catalogue no. E0554S). Wild-type plasmid BpGH16-pET28a(+) was used as a template, and mutagenic forward and reverse primers were developed using NEBaseChanger with subtle modifications (Table S4). A 25 μl PCR cocktail was prepared for mutating each residue. The final concentration of Q5 Hot Start High-Fidelity 2X Master Mix was 1X, each primer was at 0.5 μM, the amount of used template was 20 ng, and the rest of the volume was made up of nuclease-free water. PCR was executed using the following conditions-initial denaturation was performed at 98 °C for 1 min, for each cycle-denaturation, annealing, and extension (72 °C) were set for 10 s, 20 s, and 7 min, respectively. A total of 25 cycles were performed, and the final extension was for 5 min 5 μl PCR products were loaded on 0.8% agarose gel to conform to the amplification of the mutagenic gene. Ligation of PCR products and cleavage of methylated template DNA was then performed using 5 μl KLD reaction buffer and 1 μl KLD enzyme cocktail at RT for 1 h. It was then transformed into E. coli TOP-10 cells and plasmids were isolated. The obtained plasmids were sequenced to confirm the mutation at the desired location. Once mutation was confirmed in a gene, the mutant plasmid was transformed into Rosetta (DE3) cells for protein expression. The mutant protein was then expressed as per the protocol mentioned earlier, and kinetics were performed with barley β-glucan.
(§2) Reactions were performed in 100 μl volume mixture using recombinant enzyme (final concentration at 0.1 mg/ml) in 50 mM sodium phosphate buffer (pH 5.7) at 37 °C for 1 h of incubation. Then, reactions were terminated by boiling for 5 min. Enzymatic assays were determined with 3,5- dinitrosalicylic acid (DNS) assay ([85]). In brief, 0.05 g Na2SO3 and 1 g DNS were mixed in a 50 ml water-containing reagent bottle and stirred about 6 h using a magnetic stirrer. After that, 200 μl phenol was added and made up to 100 ml. A working solution of DNS was prepared by adding 50 μl glucose (20% (w/v) stock) in prepared 100 ml of reagent mixtures and immediately used for experiments without adding NaOH. 80 μl DNS reagent was added to the reaction mixtures and incubated at 100 °C for 10 min, followed by ice-cooling for 10 min. Consequently, recorded the developed color spectrophotometrically at 575 nm ([85]). A standard curve generated by different concentrations of maltose was used for determining released reducing sugars in each case.

BPGH16 mutant L358A = experiment: Kinetics of BPGH16 mutant L358A (DNS assay); type: biochemical, Blautia producta ATCC 27340
Description: (§3) The residues R331, L358, E379, D381, E384, W362, and H398 of BpGH16MLG were mutated to Ala by the Q5Site-Directed Mutagenesis Kit (New England Biolabs, UK, catalogue no. E0554S). Wild-type plasmid BpGH16-pET28a(+) was used as a template, and mutagenic forward and reverse primers were developed using NEBaseChanger with subtle modifications (Table S4). A 25 μl PCR cocktail was prepared for mutating each residue. The final concentration of Q5 Hot Start High-Fidelity 2X Master Mix was 1X, each primer was at 0.5 μM, the amount of used template was 20 ng, and the rest of the volume was made up of nuclease-free water. PCR was executed using the following conditions-initial denaturation was performed at 98 °C for 1 min, for each cycle-denaturation, annealing, and extension (72 °C) were set for 10 s, 20 s, and 7 min, respectively. […] The mutant protein was then expressed as per the protocol mentioned earlier, and kinetics were performed with barley β-glucan.
(§4) Reactions were performed in 100 μl volume mixture using recombinant enzyme (final concentration at 0.1 mg/ml) in 50 mM sodium phosphate buffer (pH 5.7) at 37 °C for 1 h of incubation. […] Enzymatic assays were determined with 3,5- dinitrosalicylic acid (DNS) assay ([85]). […] Consequently, recorded the developed color spectrophotometrically at 575 nm ([85]). […]

BPGH16 mutant E379A = experiment: Kinetics of BPGH16 mutant E379A (DNS assay); type: biochemical, Blautia producta ATCC 27340
Description: as §3, §4

BPGH16 mutant D381A = experiment: Kinetics of BPGH16 mutant D381A (DNS assay); type: biochemical, Blautia producta ATCC 27340
Description: as §1, §2

BPGH16 mutant E384A = experiment: Kinetics of BPGH16 mutant E384A (DNS assay); type: biochemical, Blautia producta ATCC 27340
Description: as §3, §4

BPGH16 mutant H398A = experiment: Kinetics of BPGH16 mutant H398A (DNS assay); type: biochemical, Blautia producta ATCC 27340
Description: as §3, §4

proteome of B. producta = experiment: Proteomics of B. producta grown on barley β-glucan versus glucose; type: cell-based, Blautia producta ATCC 27340; conditions: barley β-glucan compared to glucose
Description: B. producta ATCC 27340 was anaerobically grown at 37 °C overnight, cells were collected by centrifugation (3000g at room temperature, RT) and washed thrice with 5 ml PBS. […] The strain was grown to the mid-late exponential phase ([…] ∼ 0.5-0.6) in two biological replicates. […] The lysate was centrifuged (15,000g, 15 min at 4 °C), and the supernatant was collected. Procedures for the precipitation of protein, trypsin digestion, and analysis of generated peptides have been mentioned in the Supplementary file. […] Protein quantities were then calculated using Bradford assay. […] Consequently, trypsin digestion of protein was attained by incubating the reaction at 37°C for 16 h using 5 μg trypsin (MS grade, Promega). The next day, the reaction was quenched by adding one volume of 2% (w/v) trifluoroacetic acid, and the obtained peptides were used for mass spectrometry. Analysis of peptides was carried out as reported by Singh et al. (83). Using the manufacturer's protocol, peptides from each replicate of B. producta ATCC 27340 were initially cleaned-up using Oasis HLB 1 cc Vac cartridges (Waters). The […] analysis of each sample was performed on a quadrupole-TOF hybrid mass spectrometer (TripleTOF 6600, SCIEX) coupled to an Eksigent Nano LC-425 system. […] method was created using 93 precursor isolation windows which were defined on the basis of precursor m/z frequencies in DDA run using the SWATH Variable Window Calculator (SCIEX), with a limitation window of 5 m/z. Analysis parameters were optimized before any sample was run. Nebulizer gas and curtain gas were maintained at 20 and 25 psi, respectively.

BoGH16MLG = tested on: BoGH16MLG; set-up: method as in PMID 29141231; conditions: BoGH16MLG with barley MLG, no unit, cited from earlier work

Substance: Barley β-glucan
- increase in Km (BPGH16 mutant R331A; R331A versus native enzyme): < 2 fold
- reduction in kcat (BPGH16 mutant R331A; R331A versus native enzyme): ~1.3 fold
- Km (BPGH16 mutant R331A; mutant R331A, DNS assay): 0.35 ± 0.05 mg/mL
- kcat (BPGH16 mutant R331A; mutant R331A, DNS assay): 48 ± 0.8 s⁻¹
- kcat (BPGH16 mutant L358A): 0 s⁻¹
- kcat (BPGH16 mutant E379A): 0 s⁻¹
- overall loss in activity (BPGH16 mutant D381A; D381A versus native enzyme): 1.34 fold
- reduction in kcat (BPGH16 mutant D381A; D381A versus native enzyme): 1.7 fold
- Km (BPGH16 mutant D381A; mutant D381A, DNS assay): 0.17 ± 0.04 mg/mL
- kcat (BPGH16 mutant D381A; mutant D381A, DNS assay): 35.7 ± 1.1 s⁻¹
- kcat (BPGH16 mutant E384A): 0 s⁻¹
- kcat (BPGH16 mutant H398A): 0 s⁻¹
- abundance of Bp1313 (proteome of B. producta): approximately 5 fold
- abundance of Bp1314 (proteome of B. producta): ~16 fold
- expression of Bp1317 (proteome of B. producta): about 7 fold
- expression of Bp1318 (proteome of B. producta): about 7 fold
- up-regulation of Bp3738 (GH18) (proteome of B. producta): 5.1 fold
- up-regulation of Bp4420 (GH3) (proteome of B. producta): 3.4 fold
- up-regulation of Bp8539 (GH3) (proteome of B. producta): 12.4 fold
- kcat (BoGH16MLG; in 1/s): 85.8 ± 4.6
- Km (BoGH16MLG; in mg/mL): 0.364 ± 0.051
